Values after ≈ are worked out from the molar mass of the structure shown. Values belong to the molecule of their own block, whether it stands above or below them.
Assays:
[1] = rabbit, in vivo; cited from earlier work
[2] = Solubility of cystine; assay type: physicochemical; conditions: phosphate buffered saline, aqueous buffer; read-out: saturated solution of cystine
[3] = reported; cited from earlier work

Structure (SMILES): NCCS [cysteamine, β-mercaptoethylamine]
eye drop concentration above which toxicity occurred [1]: > 0.55%

solubility thermodynamic [2]: 110 µg/mL (≈ 458 µM)
Structure (SMILES): N[C@@H](CSSC[C@H](N)C(=O)O)C(=O)O [cystine]

Structure (SMILES): CC(C)(C)NC[C@H](O)COc1nsnc1N1CCOCC1 [timolol]
epithelium permeability [3]: 1.2×10^−7 m/s
